Assay results from patent publication US20030068615A1, “Polypeptides that bind HIV gp120 and related nucleic acids, antibodies, compositions, and methods of use” (priority 1999, published 2003).
“And” between values parts separate entries of the source, which are not always exact repeats. Identical values can stand only once. Like-named read-outs stand apart in the source and are kept apart here.

Molecular target: HIV-1LAI envelope gp120 (Human immunodeficiency virus type 1 group M subtype B, UniProt P03377)
Format: binding
Details: for Binding Results For Window Length (counts bound-background), 9: 9-mer starting at the first residue of the printed sequence; for Binding Results For Window Length (counts bound-background), 12: 12-mer starting at the first residue of the printed sequence; for Counts per 20′ Average-background: CCR5 18-mer scan, radiolabeled HIV-1LAI gp120; for number of radioactive decays (counts) counted: human CD4 21-mer scan, empty control 2075
[1] = Panel E, 9-mers and 12-mers of CD4, empty control 571
[2] = STRL33 amino terminus, background subtracted
[3] = STRL33 18-mer scan, background subtracted, first of two count columns
[4] = STRL33 18-mer scan, background subtracted, second of two count columns
[5] = Panel B, 15-mers and 18-mers of CD4, empty control 575
[6] = Panel C, 15-mers and 18-mers of CD4, empty control 556
[7] = Panel D, 9-mers and 12-mers of CD4, empty control […]
[8] = Panel F, sequential alanine replacements of CD4 polypeptides, duplicate series, empty control 569

## LAFQKASSI
[1]
  COUNTS of radiolabeled gp120 retained: 592 counts

## DSSQEEHQAFLQFSK
[2]
  Binding Results For Window Length (counts bound-background), 9: 147 counts
  Binding Results For Window Length (counts bound-background), 12: 882 counts
STRL33 amino terminus, 15-mer starting at the first residue of the printed sequence, background subtracted
  Binding Results For Window Length (counts bound-background), 15: 4588 counts

## ACLNPVLYAFVSLKFRKN [STRL33 segment 281-298]
[3]
  radioactive counts recorded in twenty minutes: 4173.5 counts
[4]
  radioactive counts recorded in twenty minutes: 4515.5 counts

## ANSDTHLLQGQSLTL
[5]
  COUNTS of radiolabeled gp120 retained: 542 counts

## LLVFGLTANSDTHLL
[5]
  COUNTS of radiolabeled gp120 retained: 599 counts

## KIVILGLVLPLLVMVICY
Background subtracted
  Counts per 20′ Average-background: 65 counts per 20′

## EHQAFLQFS
[2]
  Binding Results For Window Length (counts bound-background), 9: 7505 counts

## TVEKLTGSGELW
[1]
  COUNTS of radiolabeled gp120 retained: 573 counts

## MAVFLLTQMPFNLMKFIR [STRL33 segment 237-254]
[3]
  radioactive counts recorded in twenty minutes: 2263.5 counts
[4]
  radioactive counts recorded in twenty minutes: 2842.5 counts

## VEFSFPLAF
[1]
  COUNTS of radiolabeled gp120 retained: 1064 counts

## ANSDTHLLQGQSLTLTLE
[5]
  COUNTS of radiolabeled gp120 retained: 1540 counts

## DSSQEEHQAFLQFSKVFL [STRL33 segment 17-34]
[3]
  radioactive counts recorded in twenty minutes: 869.5 counts
[4]
  radioactive counts recorded in twenty minutes: 2152.5 counts

## GEKFRNYLLVFFQKHIAK [CCR5 segment 301-]
Background subtracted
  Counts per 20′ Average-background: 69 counts per 20′

## PLIIKNLKIEDSDTYICE
[5]
  COUNTS of radiolabeled gp120 retained: 624 counts

## QWKSSEDNSKTFSASHNV
[3]
  radioactive counts recorded in twenty minutes: 464.5 counts
[4]
  radioactive counts recorded in twenty minutes: 533.5 counts

## CKCCSIFQQEAPERASSV [CCR5 segment 321-]
Background subtracted
  Counts per 20′ Average-background: 53 counts per 20′

## ICDRFYPNDLWVVVFQFQ [CXCR4 segment 185-202]
CXCR4 18-mer scan, background subtracted, empty control 0
  radioactive counts recorded in twenty minutes: 306 counts
CXCR4 18-mer scan, empty control 412
  radioactive counts recorded in twenty minutes: 718 counts

## RNEKKRHRAVRLIFTIMI [CCR5 segment 225-]
Background subtracted
  Counts per 20′ Average-background: 23 counts per 20′

## SQEEHQAFLQFS
[2]
  Binding Results For Window Length (counts bound-background), 9: 647 counts
  Binding Results For Window Length (counts bound-background), 12: 7512 counts

## DQGNFPLIIKNLKIE
[5]
  COUNTS of radiolabeled gp120 retained: 635 counts

## LQNQKKVEFKIDIVVLAF
[6]
  COUNTS of radiolabeled gp120 retained: 938 counts

## EFKIDIVVLAFQKAS
[6]
  COUNTS of radiolabeled gp120 retained: 1188 counts

## NLTLALEAKTGKLHQEVNLVV [human CD4 296-316]
  number of radioactive decays (counts) counted: 1676 counts

## PKLMLSLKLENKEAKVSKREK [human CD4 336-356]
  number of radioactive decays (counts) counted: 1656 counts

## FGLTANSDT
[7]
  COUNTS of radiolabeled gp120 retained: 563 counts

## GNFPLIIKNLKIEDS
[5]
  COUNTS of radiolabeled gp120 retained: 624 counts

## DIVVLAFQKASS
[1]
  COUNTS of radiolabeled gp120 retained: 746 counts

## SLKLENKEAKVSKREKAVWVL [human CD4 341-361]
  number of radioactive decays (counts) counted: 1663 counts

## STPVQPMALIVLGGVAGLLLF [human CD4 391-411]
  number of radioactive decays (counts) counted: 2527 counts

## KEGEQVEFSFPL
[1]
  COUNTS of radiolabeled gp120 retained: 710 counts

## EEVQALVFGLTANSD
[8]
  COUNTS of radiolabeled gp120 retained: 11258 counts and 12603 counts

## QAKRMTWGKVTSLLIWVI
[3]
  radioactive counts recorded in twenty minutes: −71.5 counts
[4]
  radioactive counts recorded in twenty minutes: −31.5 counts

## DSDTYICEVEDQKEE
[5]
  COUNTS of radiolabeled gp120 retained: 973 counts

## LNPEAGMWQCLLSDSGQVLLE [human CD4 361-381]
  number of radioactive decays (counts) counted: 6316 counts

## EVQLLVFGL
[7]
  COUNTS of radiolabeled gp120 retained: 2146 counts

## ANSDTHLLQGQS
[7]
  COUNTS of radiolabeled gp120 retained: 559 counts

## FSFPLAFTVEKLTGSGEL
[6]
  COUNTS of radiolabeled gp120 retained: 613 counts

## AFTVEKLTGSGE
[1]
  COUNTS of radiolabeled gp120 retained: 511 counts

## FYTSMLILTCITVDRFIV [STRL33 segment 113-130]
[3]
  radioactive counts recorded in twenty minutes: 744.5 counts
[4]
  radioactive counts recorded in twenty minutes: 907.5 counts

## DQKEEVQLL
[7]
  COUNTS of radiolabeled gp120 retained: 589 counts

## AARLLPPLYSLVFIFGFV [CCR5 segment 29-46]
Background subtracted
  Counts per 20′ Average-background: 33 counts per 20′

## EAVQLLVFGLTANSD
[8]
  COUNTS of radiolabeled gp120 retained: 14220 counts and 13213 counts

## THLLQGQSLALTLES
[8]
  COUNTS of radiolabeled gp120 retained: 8158 counts and 4749 counts

## FSKVFLPCMYLVVFVCGL [STRL33 segment 29-46]
[3]
  radioactive counts recorded in twenty minutes: 534.5 counts
[4]
  radioactive counts recorded in twenty minutes: 633.5 counts

## TCTVLQNQKKVEFKIDIV
[6]
  COUNTS of radiolabeled gp120 retained: 571 counts

## TVLQNQKKV
[1]
  COUNTS of radiolabeled gp120 retained: 534 counts

## DRYLAVVHAVFALKARTV
Background subtracted
  Counts per 20′ Average-background: 62 counts per 20′

## SDTYICEVEDQKEEV
[5]
  COUNTS of radiolabeled gp120 retained: 993 counts

## YAGIHEWVFGQVMCKSLL [STRL33 segment 89-106]
[3]
  radioactive counts recorded in twenty minutes: 5911.5 counts
[4]
  radioactive counts recorded in twenty minutes: 6245.5 counts
